The values that follow come from ChEMBL document CHEMBL1201862, “PubChem BioAssay data set” (2004).

SMILES strings stand for the structures.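 Five compound concentrations were applied to cells in 96-well plates for 48 hours; endpoints were derived by simple linear interpolation of the resulting dose-response curve. GI50 marks 50% less growth.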 Calls of active or inactive are those of the source. Cut-off read from the data, not from the text of the source: active = GI50 up to about 1.1 µM and inactive = higher.

Some test systems named below: Malme-3M; EKVX; RPMI-8226; OVCAR-8; OVCAR-5; HOP-92; NCI-H23; NCI-H460; SNB-75; NCI/ADR-RES; HCC 2998; SR; T47D; MDA-MB-231; SF-539; NCI-H226; UACC-62; HCT-15; SK-MEL-2.
Experiment in all cases: growth of human tumour cells (NCI), 48 h

Regarding `Cc1cc2c(=O)c3ccccc3oc2c(C#N)c1C`, the GI50 in the assay with Malme-3M, in the assay on EKVX, in the assay on RPMI-8226, in the assay on OVCAR-8, with OVCAR-5 and in the assay on HOP-92 was > 100 µM (inactive) each time. Also, the GI50 in the assay with NCI-H23, with NCI-H460, with SNB-75, in the assay on NCI/ADR-RES, in the assay on HCC 2998 and with SR was > 100 µM (inactive) in each case. The GI50 in the assay on T47D was > 100 µM (inactive).

For the compound `O=P(O)(O)c1ccc2c(c1)OCCOCCOCCOCCO2`, the GI50 with Malme-3M, with MDA-MB-231, in the assay with EKVX, in the assay with RPMI-8226, in the assay on OVCAR-8 and in the assay with SF-539 was > 100 µM (inactive) in each case. The GI50 in the assay on NCI-H23, in the assay with NCI-H460, in the assay with SNB-75, in the assay on NCI-H226, with HCC 2998 and in the assay on UACC-62 was > 100 µM (inactive) each time. Further, the GI50 is > 100 µM (inactive) with SR, > 100 µM (inactive) in the assay with T47D and more than 100 µM with HCT-15.

In the case of `Nc1ccc2nc3n(c2c1)C(=O)c1ccccc1-3`, the GI50 in the assay with Malme-3M, in the assay with EKVX, with RPMI-8226, in the assay with OVCAR-8, in the assay on SF-539 and in the assay with OVCAR-5 was > 100 µM (inactive) each time. In addition, the GI50 in the assay with HOP-92, in the assay on SK-MEL-2, in the assay on NCI-H23, in the assay on NCI-H460, in the assay on SNB-75 and in the assay on NCI-H226 was > 100 µM (inactive) in each case. Further, the GI50 in the assay with NCI/ADR-RES was > 100 µM (inactive); in the assay with HCC 2998 it was > 100 µM (inactive); with UACC-62, > 100 µM (inactive); in the assay with SR it was > 100 µM (inactive); in the assay on HCT-15 it was more than 100 µM.

Turning to `Cc1nc2ccccc2c(=O)n1NC(=O)c1ccccc1O`, the GI50 in the assay on MDA-MB-231, with EKVX, with RPMI-8226, in the assay with OVCAR-8, with SF-539 and in the assay on OVCAR-5 was > 100 µM (inactive) in each case. Besides, the GI50 in the assay on HOP-92, in the assay on NCI-H23, in the assay with NCI-H460, with SNB-75, with NCI-H226 and in the assay with HCC 2998 was > 100 µM (inactive) in each case. Further, the GI50 was > 100 µM (inactive) in the assay on UACC-62, > 100 µM (inactive) with SR and more than 100 µM in the assay with HCT-15.

As for `CC1=C2[C@@H](c3ccccc3)C3C=CC2(c2ccccc23)N(C(=O)Nc2cccc3ccccc23)C1=O` (some centres undefined), the GI50 in the assay on Malme-3M, in the assay with EKVX, in the assay on RPMI-8226, with OVCAR-8, in the assay with SF-539 and in the assay with OVCAR-5 was > 100 µM (inactive) each time. The GI50 in the assay on HOP-92 was > 100 µM (inactive); in the assay with NCI-H23, > 100 µM (inactive); with HCC 2998, > 100 µM (inactive); in the assay with UACC-62, > 100 µM (inactive); in the assay with SR, > 100 µM (inactive); with HCT-15, more than 100 µM.

As to `NC(=O)CCC(NC(=O)c1c2ccccc2nc2ccccc12)C(=O)O` (centres undefined), the GI50 in the assay with Malme-3M, with MDA-MB-231, with EKVX, in the assay on RPMI-8226, in the assay on OVCAR-8 and in the assay with SF-539 was > 100 µM (inactive) in each case. In addition, the GI50 in the assay on OVCAR-5, in the assay on HOP-92, in the assay with SK-MEL-2, in the assay with NCI-H23, with NCI-H460 and in the assay on SNB-75 was > 100 µM (inactive) in each case. The GI50 in the assay on NCI-H226 was > 100 µM (inactive); in the assay on NCI/ADR-RES, > 100 µM (inactive); with HCC 2998, > 100 µM (inactive); with UACC-62 it was > 100 µM (inactive); with HCT-15, more than 100 µM.

As for `C1=N\CCOCC/N=C\c2ccc(cc2)OCc2cccc(n2)COc2ccc/1cc2`, the GI50 in the assay on Malme-3M was > 100 µM (inactive); in the assay with MDA-MB-231, 54.6 µM (inactive); in the assay with EKVX, > 100 µM (inactive); in the assay with RPMI-8226 it was > 100 µM (inactive); in the assay on OVCAR-8, > 100 µM (inactive); with SF-539, > 100 µM (inactive). Further, the GI50 in the assay with OVCAR-5, with HOP-92, in the assay on SK-MEL-2, in the assay with NCI-H23, in the assay on NCI-H460 and in the assay with SNB-75 was > 100 µM (inactive) in each case. The GI50 is 57.8 µM (inactive) in the assay on NCI-H226; > 100 µM (inactive) with NCI/ADR-RES; > 100 µM (inactive) with UACC-62; > 100 µM (inactive) with SR; more than 100 µM with HCT-15.

On to `CC[C@H](C)[C@H]1NC(=O)[C@@H](NC(=O)[C@@H](CC(C)C)N(C)C(=O)C2CCCN2C(=O)[C@H](C)O)[C@@H](C)OC(=O)[C@H](Cc2ccc(OC)cc2)N(C)C(=O)[C@@H]2CCCN2C(=O)[C@H](CCCCNC(=O)OCc2ccccc2)NC(=O)[C@H](C)C(=O)[C@H](C(C)C)OC(=O)C[C@@H]1O` (some centres undefined), for which the GI50 in the assay with Malme-3M is 4.89 µM (inactive); in the assay on EKVX, 5.38 µM (inactive); in the assay with RPMI-8226, 4.17 µM (inactive); in the assay with OVCAR-8 it was 19.7 µM (inactive); in the assay with SF-539 it was 12.8 µM (inactive); with OVCAR-5 it was 7.28 µM (inactive). For the same compound, the GI50 in the assay with HOP-92 is 3.49 µM (inactive); in the assay on SK-MEL-2 it was 1.96 µM (inactive); in the assay with NCI-H23, 10.7 µM (inactive); in the assay on NCI-H460, 6.4 µM (inactive); in the assay on NCI-H226, 12.7 µM (inactive); in the assay on NCI/ADR-RES, > 25 µM (inactive). Also, the GI50 with HCC 2998 was 2.73 µM (inactive); in the assay on UACC-62, 8.2 µM (inactive); with SR, 12.2 µM (inactive); with T47D it was 7.67 µM (inactive); in the assay on HCT-15, more than 25 µM.

Turning to `COC(=O)c1cc(-c2cccn2C)c2c(c1C(=O)OC)c1ccccc1n2C`, the GI50 in the assay on Malme-3M is > 100 µM (inactive); with RPMI-8226, 43.7 µM (inactive); in the assay with OVCAR-8, 56.9 µM (inactive); in the assay with SF-539 it was 43.8 µM (inactive); with HOP-92 it was 50.5 µM (inactive); in the assay with SK-MEL-2, > 100 µM (inactive). Besides, the GI50 in the assay on NCI-H23 is 85.7 µM (inactive); with NCI-H460 it was 39.8 µM (inactive); in the assay on SNB-75, 71.4 µM (inactive); in the assay with HCC 2998 it was 45.5 µM (inactive); in the assay with UACC-62, > 100 µM (inactive); in the assay on SR, 16.9 µM (inactive). The compound further had a GI50 in the assay with HCT-15 of 22.4 µM.

For the compound `COc1ccc(OC)c(/C=N/N=C2\C(=O)Nc3c(Cl)cc(Cl)cc32)c1`, the GI50 in the assay on Malme-3M was > 100 µM (inactive); in the assay with MDA-MB-231 it was 34 µM (inactive); with EKVX it was 8.67 µM (inactive); in the assay on OVCAR-8, 61 µM (inactive); in the assay with SF-539, 38 µM (inactive); in the assay on OVCAR-5 it was > 100 µM (inactive). Besides, the GI50 with HOP-92 is 47.3 µM (inactive); in the assay on SK-MEL-2 it was 21.2 µM (inactive); in the assay on NCI-H23 it was 48.4 µM (inactive); in the assay with NCI-H460, 63.5 µM (inactive); in the assay with SNB-75, 0.505 µM (active); in the assay with NCI-H226, 82.6 µM (inactive). Also, the GI50 in the assay with NCI/ADR-RES was 20.2 µM (inactive); with HCC 2998, > 100 µM (inactive); with UACC-62, 55.6 µM (inactive); in the assay on SR, 25.1 µM (inactive); in the assay on HCT-15, 36.6 µM.

For the compound `Cc1ccc(S(=O)(=O)NC(=O)NCCc2ccc(O)c(O)c2)cc1`, the GI50 in the assay with Malme-3M was > 100 µM (inactive); with MDA-MB-231 it was > 100 µM (inactive); in the assay on EKVX, > 100 µM (inactive); in the assay with RPMI-8226, 38 µM (inactive); in the assay with OVCAR-8 it was 97.3 µM (inactive); in the assay on SF-539 it was > 100 µM (inactive). The GI50 with OVCAR-5, in the assay on HOP-92, with SK-MEL-2, with NCI-H23, with NCI-H460 and in the assay with SNB-75 was > 100 µM (inactive) in each case. The GI50 with NCI-H226 is > 100 µM (inactive); in the assay on NCI/ADR-RES, > 100 µM (inactive); in the assay with HCC 2998, > 100 µM (inactive); in the assay with UACC-62, > 100 µM (inactive); in the assay with SR, > 100 µM (inactive); in the assay with HCT-15 it was more than 100 µM.

Consider `[N-]=[N+]=CC(=O)OC1CCc2ccccc21` (centres undefined), for which the GI50 is > 100 µM (inactive) with Malme-3M; 44.1 µM (inactive) with MDA-MB-231; > 100 µM (inactive) with EKVX; > 100 µM (inactive) in the assay with RPMI-8226; 46.5 µM (inactive) in the assay on OVCAR-5; 44.6 µM (inactive) with HOP-92. Further, the GI50 is > 100 µM (inactive) in the assay on SK-MEL-2; 82.8 µM (inactive) in the assay on NCI-H23; 47.8 µM (inactive) in the assay with NCI-H460; > 100 µM (inactive) with NCI-H226; > 100 µM (inactive) in the assay on HCC 2998; > 100 µM (inactive) in the assay with UACC-62. Also, the GI50 with SR was > 100 µM (inactive); in the assay on HCT-15, more than 100 µM.

`O=[N+]([O-])c1cccc(-c2ccc([C@H]3CC(c4ccc(Cl)cc4)=NN3)o2)c1`: the GI50 was 15.8 µM (inactive) in the assay with Malme-3M; 70 µM (inactive) in the assay on EKVX; 14.3 µM (inactive) with RPMI-8226; 12.3 µM (inactive) in the assay with OVCAR-8; 31.7 µM (inactive) with OVCAR-5; 17.3 µM (inactive) in the assay with HOP-92. Also, the GI50 is 14.7 µM (inactive) with SNB-75; 25.5 µM (inactive) in the assay with NCI-H226; 7.83 µM (inactive) in the assay with NCI/ADR-RES; 16.6 µM (inactive) in the assay on HCC 2998; 16.3 µM (inactive) in the assay with UACC-62; 0.433 µM (active) in the assay on SR. Moreover, the GI50 with T47D is 11.4 µM (inactive); in the assay on HCT-15 it was 5.15 µM.
